{"source": "paper PMC11786100", "about": "“Chronic GIPR agonism results in pancreatic islet GIPR functional desensitisation” (Molecular Metabolism, 2025)", "key": {"HFD-induced obese mice": {"test_system": "HFD-induced obese mice", "assay": "Chronic GIP108 administration to HFD-induced obese mice", "assay_type": "in vivo, mouse", "details": "for body weight / food intake: n = 9–10/group", "protocol": "In all in vivo studies, mice were randomised by body weight into groups. Mice received a 50 μL subcutaneous injection of saline (0.9% sodium chloride) or peptide at a specified dose, diluted in saline. Peptide dosing was in nmol per kg of total body weight. For the assessment of the chronic effects of GIP108, mice were injected daily for 15 days. Body composition was measured by EchoMRI on day −1 and day 15. An intraperitoneal glucose tolerance test (IPGTT) (2 g/kg) was conducted on day 14, following 6 h of fasting and 2 h after peptide injection. Non-fasting plasma leptin (ab199082, Abcam, UK), adiponectin (ab226900, Abcam, UK) and amino acids (ab65347, Abcam, UK) were measured on day 16. For the assessments of in vivo GIPR desensitisation, mice were injected at 17:00 with vehicle or GIP108 (30 nmol/kg) prior to an acute food intake study/IPGTT/insulin bleeds conducted the following day. Full details of the in vivo studies are provided in the supplementary methods.\nHFD-induced obese mice (mean starting weight of 43.4 g) received daily injection of saline, GIP108 (30 nmol/kg) and GIP108 (100 nmol/kg) (n=9-10/group) for 15 days. Mice were injected between 16:00 and 17:00, before the beginning of the natural feeding period. Food intake and body weight were measured daily for the entirety of the study. Fat mass and lean mass were calculated on day -1 and day 15. An intraperitoneal glucose tolerance test (IPGTT) was conducted on day 14. On this day, mice received their daily injection of peptide at midday rather than between 16:00 and 17:00. The mice were culled on day 16 via decapitation to allow for collection of large volumes of blood for plasma analysis.\nMice were fasted at 08:00. For all studies, 20% glucose was administered at 14:00, with the injection volume adjusted to the body weight of the mouse such that each mouse received glucose at 2 g/kg. To assess effects of GIP108 on day 14 of the chronic study, mice were dosed with saline or GIP108 at a specified dose at 12:00. […] Blood glucose measurements were taken via tail vein venesection at baseline, t=15, t=30, t=60, t=90 and t=120 mins. Glucose AUC is calculated using y=0. Glucose readings were measured in mmol/L using the same GlucoRx glucometer.\nBody composition was measured using an EchoMRI^TM machine. This allows for the measurement of lean mass, fat mass and water mass. The mass was recorded in grams. Mice were restrained in a red Perspex tube which was then inserted into the EchoMRI^TM machine. Each scan took 160 seconds. The tube was cleaned between animals to minimise stress.\nLeptin, adiponectin and amino acids were quantified following chronic GIP108 administration. Plasma amino acids were measured using the Abcam L-amino acid assay kit (ab65347, Abcam, UK). Plasma adiponectin was measured using the Abcam mouse adiponectin ELISA kit (ab226900, Abcam, UK). Plasma leptin was measured using the Abcam mouse leptin ELISA kit (ab199082, Abcam, UK). All assays were performed according to the manufacturer’s protocol and were read using the SpectraMax i3x Microplate Reader (Molecular Devices, US)."}, "mouse SNAP-tagged GIPR": {"biological_target": "T1, mouse SNAP-tagged GIPR (Mus musculus, UniProt Q0P543)", "T1 construct": "host or cells: AD-293", "T1 sequence (Q0P543 19-460)": "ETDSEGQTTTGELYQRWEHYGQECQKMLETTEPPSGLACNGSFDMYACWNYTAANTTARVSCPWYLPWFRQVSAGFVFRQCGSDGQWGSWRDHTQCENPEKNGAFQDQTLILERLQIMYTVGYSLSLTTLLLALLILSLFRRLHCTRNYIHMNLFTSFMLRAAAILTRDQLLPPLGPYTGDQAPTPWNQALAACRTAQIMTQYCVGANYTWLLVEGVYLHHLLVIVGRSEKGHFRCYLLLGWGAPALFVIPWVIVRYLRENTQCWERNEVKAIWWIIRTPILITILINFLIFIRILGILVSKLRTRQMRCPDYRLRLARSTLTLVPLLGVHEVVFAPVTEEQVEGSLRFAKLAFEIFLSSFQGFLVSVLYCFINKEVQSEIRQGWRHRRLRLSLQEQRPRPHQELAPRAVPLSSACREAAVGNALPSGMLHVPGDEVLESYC", "assay": "β-arrestin-2 activation assay (Borealis sensor) in AD-293 cells", "assay_type": "cell-based", "details": "1 μM, 30-minute stimulation, n = 5–6"}, "[1]": {"details": "30 nmol/kg daily s.c. over two weeks"}, "[2]": {"details": "100 nmol/kg daily s.c. over two weeks, EchoMRI"}, "[3]": {"details": "100 nmol/kg daily s.c. over two weeks"}, "[4]": {"details": "30 or 100 nmol/kg daily s.c., fed state 16 h after last injection"}}}
{"smiles": "CC[C@H](C)[C@H](NC(=O)[C@H](CO)NC(=O)[C@H](Cc1ccc(O)cc1)NC(=O)[C@H](CC(=O)O)NC(=O)[C@H](CO)NC(=O)[C@@H](NC(=O)[C@H](Cc1ccccc1)NC(=O)[C@@H](NC(=O)CNC(=O)[C@H](CCC(=O)O)NC(=O)C(C)(C)NC(=O)[C@@H](N)Cc1ccc(O)cc1)[C@@H](C)O)[C@@H](C)CC)C(=O)N[C@@H](C)C(=O)N[C@@H](CC(C)C)C(=O)N[C@@H](CC(=O)O)C(=O)N[C@@H](CCCCN)C(=O)N[C@H](C(=O)N[C@@H](Cc1c[nH]cn1)C(=O)N[C@@H](CCC(N)=O)C(=O)N[C@@H](CCC(N)=O)C(=O)N[C@@H](CC(=O)O)C(=O)N[C@@H](Cc1ccccc1)C(=O)N[C@H](C(=O)N[C@@H](CC(N)=O)C(=O)N[C@@H](Cc1c[nH]c2ccccc12)C(=O)N[C@@H](CC(C)C)C(=O)N[C@@H](CC(C)C)C(=O)N[C@@H](C)C(=O)N[C@@H](CCC(N)=O)C(=O)N[C@@H](CCCCN)C(=O)NCC(=O)N[C@@H](CCCCNC(=O)CC[C@H](NC(=O)CCCCCCCCCCCCCCCCCCC(=O)O)C(=O)O)C(=O)N[C@@H](CCCCN)C(=O)N[C@@H](CC(N)=O)C(=O)N[C@@H](CC(=O)O)C(=O)N[C@@H](Cc1c[nH]c2ccccc12)C(=O)N[C@@H](CCCCN)C(=O)N[C@@H](Cc1c[nH]cn1)C(=O)N[C@@H](CC(N)=O)C(=O)N[C@H](C(=O)N[C@H](C(=O)N[C@@H](CCC(N)=O)C(=O)O)[C@@H](C)O)[C@@H](C)CC)C(C)C)[C@@H](C)CC", "note": "[GIP108]", "values": [{"measurement": "fat mass", "setting": "HFD-induced obese mice; 30 nmol/kg daily s.c. over two weeks, EchoMRI", "result": "not 30 nmol/kg"}, {"measurement": "body weight", "setting": "HFD-induced obese mice; [1]", "result": "had no effect on body weight"}, {"measurement": "food intake", "setting": "HFD-induced obese mice; [1]", "result": "not 30 nmol/kg"}, {"measurement": "fat mass", "setting": "HFD-induced obese mice; [2]", "result": "significantly lowered"}, {"measurement": "lean mass", "setting": "HFD-induced obese mice; [2]", "result": "without reductions in lean mass"}, {"measurement": "body weight", "setting": "HFD-induced obese mice; [3]", "result": "significantly lowered"}, {"measurement": "food intake", "setting": "HFD-induced obese mice; [3]", "result": "significantly lowered"}, {"measurement": "intraperitoneal glucose tolerance", "setting": "HFD-induced obese mice; 30 and 100 nmol/kg daily s.c., IPGTT 2 g/kg on day 14, 2 h after injection", "result": "dose-dependent improvement"}, {"measurement": "fasting glucose", "setting": "HFD-induced obese mice; 30 and 100 nmol/kg daily s.c., day 14, 2 h after injection", "result": "dose-dependent improvement"}, {"measurement": "plasma adiponectin", "setting": "HFD-induced obese mice; [4]", "result": "increased plasma adiponectin"}, {"measurement": "plasma amino acid levels", "setting": "HFD-induced obese mice; [4]", "result": "had no impact"}, {"measurement": "plasma leptin", "setting": "HFD-induced obese mice; [4]", "result": "reduced plasma leptin"}, {"measurement": "β-arrestin-2 activation compared to vehicle control", "setting": "mouse SNAP-tagged GIPR", "result": "neither hGIP (1 μM) nor GIP108 (1 μM) resulted in significant increases"}]}
